The source of these data is PMC12738692, “Identification, characterization, and structure-activity relationship of the ASIC3-selective peptide WRPRFa” (Communications Chemistry, 2025).

Substitutions are numbered along the chain they refer to. Where no end group is shown, it is not given here.

What all share (format): cell-based
The target of experiment [1] is T1, human ASIC3 (Homo sapiens, UniProt Q9UHC3).
T1 construct: CHO cells stably expressing human ASIC3 (NM_004769.1)
T1 sequence (Q9UHC3 1-531): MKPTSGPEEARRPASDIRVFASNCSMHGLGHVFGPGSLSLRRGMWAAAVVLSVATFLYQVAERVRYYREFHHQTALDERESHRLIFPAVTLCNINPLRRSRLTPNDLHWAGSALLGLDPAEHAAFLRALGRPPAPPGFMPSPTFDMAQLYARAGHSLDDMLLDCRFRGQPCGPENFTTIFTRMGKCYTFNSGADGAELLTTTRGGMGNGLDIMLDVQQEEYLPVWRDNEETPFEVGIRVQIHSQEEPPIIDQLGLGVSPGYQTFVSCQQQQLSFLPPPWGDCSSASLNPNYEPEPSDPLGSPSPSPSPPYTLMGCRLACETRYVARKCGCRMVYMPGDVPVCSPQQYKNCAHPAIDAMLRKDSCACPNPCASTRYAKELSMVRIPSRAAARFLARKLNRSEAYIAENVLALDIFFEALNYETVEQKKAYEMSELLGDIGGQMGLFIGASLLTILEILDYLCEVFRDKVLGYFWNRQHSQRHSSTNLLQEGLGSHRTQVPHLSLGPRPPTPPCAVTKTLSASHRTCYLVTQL
Briefly: pH-dependence of steady-state desensitization (SSD) of ASIC3. To be noted: conditioning pH 7.0, 30 µM. As to the method: Lastly, we tested the effect of 30 µM WRPRFa on SSD of ASIC3. First, we sought to determine if, like activation, WRPRFa also changed the pH-dependence of steady-state desensitization for ASIC3. We preconditioned cells at pH 8.0–7.0 for 20 s to elicit SSD, followed immediately by a test pulse to pH 6.3 (Fig. 7F and G) to measure the fraction of channels that were not desensitized. The current evoked by each pH 6.3 test pulse was normalized to the pH 6.3 pulse following pH 8.0 conditioning and plotted against the conditioning pH to determine the pH-dependence of SSD. For untreated cells, the peak current (Ipk) was recorded, and for WRPRFa-treated cells, the current 3 s after the peak (I3s) was used. Untreated channels were completely desensitized at pH 7.0, while the WRPRFa-treated channels reached a plateau at pH 7.0 with about 30% of channels desensitized. […] The 0.11 unit shift is larger than that reported for RPRFa (0.03 unit shift)[30].

The target in a further experiment is T2, ASIC3 E421Q (Homo sapiens, UniProt Q9UHC3, E421Q).
T2 construct: human ASIC3 (NM_004769.4); P2A-mCherry reporter (C, cleaved yes); expressed in transfected cells; host or cells: CHO cells (85050302, Sigma), transient transfection
T2 sequence (Q9UHC3 1-531 E421Q): T1 sequence (Q9UHC3 1-531) with E421Q
The experiment in a line: MPC peptide activity on ASIC3 E421Q mutant. To be noted: Emax constrained, read-out: EC50 (95% CI).

The target of a further experiment is T3, ASIC131 (Homo sapiens, UniProt Q9UHC3).
T3 construct: placing human ASIC1a and human ASIC3 ORFs in tandem; expressed in transfected cells; host or cells: WT CHO cells (85050302, Sigma), transient transfection
T3 sequence (Q9UHC3 1-531): T1 sequence (Q9UHC3 1-531)
Briefly: MPC WRPRFa concentration-response on concatemer ASIC131. To be noted: read-out: lower limit EC50.

In experiment [2] the target is T1, human ASIC3. Particulars: from pH-dependence of activation.
Experiment [3] deals with T1, human ASIC3. Briefly: Time-dependence of WRPRFa wash off from activated (pH 6.3) and resting (pH 8.0) ASIC3. The method, then: Next, we assessed the rate at which WRPRFa leaves the channel from the activated and closed states. We preincubated cells with WRPRFa to load channels with peptide, then used two different protocols to remove the peptide. For dissociation from the activated state, we preincubated cells at pH 8.0 with 30 µM WRPRFa, then continuously applied pH 6.3 without WRPRFa to activate the channels while washing off bound peptide. HEK cells poorly tolerate long periods of acid application and sodium influx, so acid application was kept to 1 min. […] The first decrease of current likely arose from desensitization of unbound channels, and possibly also from an initial dissociation of peptide from activated channels, which subsequently desensitized.
For dissociation from resting state channels, we continuously applied pH 8.0 without peptide to remove WRPRFa. Every 20 s the cells were given a 5 s application of pH 6.3 to quantify the remaining sustained current. A 5 s activation was used to minimize wash-off from the activated state, which was deemed negligible based on the observed off-rate under the pH 6.3 condition. The sustained current was about 95% gone after 3 min, with a time constant of 43.5 s (95% CI: 39.0–48.4 s) (Fig. 3D and E). […]

Description for ASIC131: (§1) CHO and HEK cells were tested in the whole-cell configuration on MPC platforms using an Axopatch 200B amplifier (Axon Instruments, San Jose, CA) and a Digidata 1322A or Digidata 1440A digitizer (Axon) using pClamp 9.2 or 10.7 (Molecular Devices, San Jose, CA), respectively. When testing transfected cells, red fluorescence from the cleaved mCherry reporter was used to identify cells expressing ASIC3, ASIC131, or ASIC313. For cells expressing transfected ASIC1a or ASIC2a, the green signal from the cleaved eGFP reporter was used. All electrophysiology data were analyzed with Clampfit 11.1 (Molecular Devices).
(§2) For peptide concentration-response curves, Bottom was set to 0 and Top was constrained to ≤ 1 for peptides that approached plateau phase or where I3s/Ipk reached 1. […] For activation- or desensitization-pH curves, Bottom was set to 0 and Top constrained to 1.
Description for ASIC3 E421Q: We individually mutated the four glutamates to glutamine to remove their charge but maintain the side chain structure (Fig. 4C). We tested each mutant by incubating HEK cells stably expressing ASIC3 or CHO cells transfected with mutant ASIC3 with 30 µM WRPRFa before a pH 6.3 acid stimulus.
Plasmids were transfected into CHO cells using Lipofectamine 3000 (Thermo) according to the manufacturer’s protocol. Cells were used for patch-clamp recordings 24–48 h after transfection.
as §1, §2

As to WRPRF-NH2 [WRPRFa], on human ASIC3 [1], the “channels desensitized at plateau” value is recorded as “about 30%”. In addition, the EC50 at ASIC3 E421Q is at least 22.5 µM; at ASIC131, at least 32.4 µM. Moreover, the “peptide-bound channels activated by pH 6.3” value at human ASIC3 [2] came to 99.7%. Further, on human ASIC3 [3] (activated state wash off), the “current decrease within first 10 s at pH 6.3” value is given as “about 22%”. Also, the “sustained current gone after 3 min” value at human ASIC3 [3] (pH 8.0 wash off) is recorded as “about 95%”.

The EC50 is the concentration at which the effect is half-maximal.
